Experimental data reported in patent publication US6503881B2 (priority 1996, dated 2003).
Read-outs that look alike come from different tables or passages of the source.

Legend:
E. faecalis = format: cell-based; settings: for MBI 26 MIC, +Teicoplanin: in combination with teicoplanin; for MIC in combination: Teicoplanin + MBI 26
A. calcoaceticus = test: Overcoming inherent resistance, MIC alone and in combination (agarose dilution); format: cell-based; settings: A. calcoaceticus AC001
[1] = tested on: inherently resistant microorganisms; settings: for MBI 26 MIC +Vancomycin: Teicoplanin table; for MIC in combination: Vancomycin +MBI 26
[2] = tested on: microorganisms with acquired resistance

KWKSFIKKLTSAAKKVVTTAKPLISS [MBI 26]
16 µg/mL: MIC Alone (A. calcoaceticus; agent alone) | MIC in combination ([1]; E. gallinarum 97049 VanC) | Peptide MIC ([2]; S. aureus SA7835, pair Methicillin / MBI 26) | Peptide MIC ([2]; S. haemolyticus SH8472, pair Ampicillin / MBI 26)
0.25 µg/mL: MIC in combination ([1]; E. casseliflavus 97058 VanC) | MIC in combination ([1]; E. casseliflavus 97060 VanC)
0.1 µg/mL: Peptide MIC ([2]; S. haemolyticus SH8578, pair Erythromycin / MBI 26)
0.5 µg/mL: MBI 26 MIC +Vancomycin ([1]; E. casseliflavus 97057 VanC) | MIC in combination ([1]; E. casseliflavus 97057 VanC) | MBI 26 MIC +Vancomycin ([1]; E. casseliflavus 97058 VanC) | MIC in combination ([1]; E. casseliflavus 97059 VanC) | MIC Alone ([1]; E. casseliflavus 97060 VanC, pair Vancomycin / MBI 26) | MIC in combination ([1]; E. gallinarum 97044 VanC)
1 µg/mL: MIC in combination ([1]; E. casseliflavus 97056 VanC) | MBI 26 MIC +Vancomycin ([1]; E. casseliflavus 97059 VanC) | MBI 26 MIC +Vancomycin ([1]; E. casseliflavus 97060 VanC) | MBI 26 MIC +Vancomycin ([1]; E. gallinarum 97044 VanC) | MBI 26 MIC +Vancomycin ([1]; E. gallinarum 97046 VanC) | MBI 26 MIC +Vancomycin ([1]; E. gallinarum 97048 VanC) | Peptide MIC ([2]; S. aureus SA7609, pair Erythromycin / MBI 26) | Peptide MIC ([2]; S. epidermidis SE8410, pair Erythromycin / MBI 26) | Peptide MIC ([2]; S. epidermidis SE8411, pair Erythromycin / MBI 26) | Peptide MIC ([2]; S. epidermidis SE8497, pair Erythromycin / MBI 26) | Peptide MIC ([2]; S. epidermidis SE8503, pair Erythromycin / MBI 26) | Peptide MIC ([2]; S. epidermidis SE8565, pair Erythromycin / MBI 26) | Peptide MIC ([2]; S. haemolyticus SH8597, pair Clindamycin / MBI 26)
8 µg/mL: MBI 26 MIC, +Teicoplanin (E. faecalis; E. faecalis 97040 VanB) | MBI 26 MIC, +Teicoplanin (E. faecalis; E. faecalis 97041 VanB) | MBI 26 MIC, +Teicoplanin (E. faecalis; E. faecalis 97042 VanB) | MBI 26 MIC, +Teicoplanin (E. faecalis; E. faecalis 97043 VanB) | MIC in combination (E. faecalis; E. faecalis 97050 VanA) | MIC in combination (E. faecalis; E. faecalis 97051 VanA) | MIC in combination (E. faecalis; E. faecalis 97052 VanA) | MIC in combination (E. faecalis; E. faecalis 97053 VanA) | MIC in combination (E. faecalis; E. faecalis 97054 VanA) | MIC in combination (E. faecalis; E. faecalis 97055 VanA) | MBI 26 MIC, +Erythro. (A. calcoaceticus; in combination with erythromycin) | MIC Alone ([1]; E. casseliflavus 97056 VanC, pair Vancomycin / MBI 26) | MIC Alone ([1]; E. gallinarum 97044 VanC, pair Vancomycin / MBI 26) | MIC Alone ([1]; E. gallinarum 97046 VanC, pair Teicoplanin / MBI 26) | MIC in combination ([1]; E. gallinarum 97047 VanC) | MIC Alone ([1]; E. gallinarum 97048 VanC, pair Teicoplanin / MBI 26) | Peptide MIC ([2]; S. aureus SA7795, pair Erythromycin / MBI 26) | Peptide MIC ([2]; S. haemolyticus SH8575, pair Ampicillin / MBI 26)
64 µg/mL: MIC Alone (E. faecalis; E. faecalis 97040 VanB, agent alone) | MIC Alone (E. faecalis; E. faecalis 97041 VanB, agent alone) | MIC Alone (E. faecalis; E. faecalis 97042 VanB, agent alone) | MIC Alone (E. faecalis; E. faecalis 97043 VanB, agent alone) | MIC Alone (E. faecalis; E. faecalis 97050 VanA) | MIC Alone (E. faecalis; E. faecalis 97051 VanA) | MIC Alone (E. faecalis; E. faecalis 97052 VanA) | MIC Alone (E. faecalis; E. faecalis 97053 VanA) | MIC Alone (E. faecalis; E. faecalis 97054 VanA) | MIC Alone (E. faecalis; E. faecalis 97055 VanA) | MIC Alone ([1]; E. casseliflavus 97056 VanC, pair Teicoplanin / MBI 26) | MIC Alone ([1]; E. casseliflavus 97057 VanC, pair Teicoplanin / MBI 26) | MIC Alone ([1]; E. casseliflavus 97059 VanC, pair Teicoplanin / MBI 26) | MIC Alone ([1]; E. casseliflavus 97060 VanC, pair Teicoplanin / MBI 26) | MIC Alone ([1]; E. gallinarum 97044 VanC, pair Teicoplanin / MBI 26) | MIC Alone ([1]; E. gallinarum 97047 VanC, pair Teicoplanin / MBI 26) | MIC Alone ([1]; E. gallinarum 97047 VanC, pair Vancomycin / MBI 26) | MIC Alone ([1]; E. gallinarum 97049 VanC, pair Teicoplanin / MBI 26) | MIC Alone ([1]; E. gallinarum 97049 VanC, pair Vancomycin / MBI 26)
4 µg/mL: MIC Alone ([1]; E. casseliflavus 97058 VanC, pair Vancomycin / MBI 26) | MIC in combination ([1]; E. gallinarum 97046 VanC)
32 µg/mL: MIC Alone ([1]; E. casseliflavus 97058 VanC, pair Teicoplanin / MBI 26) | MIC Alone ([1]; E. casseliflavus 97059 VanC, pair Vancomycin / MBI 26) | MBI 26 MIC +Vancomycin ([1]; E. gallinarum 97047 VanC) | MBI 26 MIC +Vancomycin ([1]; E. gallinarum 97049 VanC)
2 µg/mL: MBI 26 MIC +Vancomycin ([1]; E. casseliflavus 97056 VanC) | MIC Alone ([1]; E. casseliflavus 97057 VanC, pair Vancomycin / MBI 26) | MIC Alone ([1]; E. gallinarum 97046 VanC, pair Vancomycin / MBI 26) | MIC in combination ([1]; E. gallinarum 97048 VanC) | MIC Alone ([1]; E. gallinarum 97048 VanC, pair Vancomycin / MBI 26) | Peptide MIC ([2]; S. aureus SA7796, pair Erythromycin / MBI 26) | Peptide MIC ([2]; S. aureus SA7818, pair Methicillin / MBI 26) | Peptide MIC ([2]; S. aureus SA7835, pair Erythromycin / MBI 26) | Peptide MIC ([2]; S. epidermidis SE8403, pair Erythromycin / MBI 26) | Peptide MIC ([2]; S. epidermidis SE8497, pair Clindamycin / MBI 26) | Peptide MIC ([2]; S. haemolyticus SH8563, pair Methicillin / MBI 26)
